The source of these data is ChEMBL document CHEMBL2407033, “Pin1 inhibitors: Pitfalls, progress and cellular pharmacology” (Bioorg Med Chem Lett, 2013).

Usually IC50 stands for the concentration needed to halve the response being measured. By inhibition is commonly meant the percentage by which the read-out fell short of the control. What is called GI50 is the concentration giving 50% growth inhibition. Low readings indicate greater sensitivity of the cells, high ones lower sensitivity of the cells. In general, Ki refers to the dissociation constant of the complex between target and ligand, obtained from inhibition or displacement. The low end stands for tighter binding, the high end for weaker binding.

Series [1] deals with T1, Peptidyl-prolyl cis-trans isomerase NIMA-interacting 1 (Homo sapiens, UniProt Q13526). Kind of series: Reversible inhibition of human Pin1.
T1 sequence (Q13526 whole entry): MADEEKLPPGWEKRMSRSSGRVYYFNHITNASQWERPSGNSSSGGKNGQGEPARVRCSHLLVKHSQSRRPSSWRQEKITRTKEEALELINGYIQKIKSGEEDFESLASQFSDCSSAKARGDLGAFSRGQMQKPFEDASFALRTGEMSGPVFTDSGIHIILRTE
Series [2] addresses T1, Peptidyl-prolyl cis-trans isomerase NIMA-interacting 1. The series can be described thus: Inhibition of Pin1 in human MCF7 cells assessed as inhibition of etoposide-induced p53 transcription at 30 uM by luciferase reporter gene assay relative to control. Format: cell-based. (Reporter assays use an easily measured gene product as a stand-in for the process of interest.)
Series [3] shares this target. Kind of series: Inhibition of human Pin1.
The target is the same in series [4]. Kind of series: Inhibition of GST-tagged Pin1 (unknown origin) using Suc-AEPF-pNA and WFYpSPR-pNA as substrate after 5 mins.
Series [5] concerns the target Peptidyl-prolyl cis-trans isomerase NIMA-interacting 4 (Homo sapiens, UniProt Q9Y237). Kind of series: Inhibition of Par14 (unknown origin).
The target in series [6] is T1, Peptidyl-prolyl cis-trans isomerase NIMA-interacting 1. The series can be described thus: Inhibition of Pin1 (unknown origin) using Suc-Ala-Glu-Pro-Phe-MCA as substrate after 120 secs by fluorescence microtiter plate reader analysis.
Series [7] shares this target. The series can be described thus: Binding affinity to GST-tagged Pin1 (unknown origin) by SPR spectroscopic analysis.
The next series deals with MEF. Kind of series: Growth inhibition of MEF expressing Pin1. The class given is functional. The settings on record: Mus musculus.
Series [8] can be described thus: Growth inhibition of Pin1-deficient MEF. The class given is cell-based. The settings on record: mouse, Pin1-deficient MEF cells.
Series [9] deals with T1, Peptidyl-prolyl cis-trans isomerase NIMA-interacting 1. Kind of series: Inhibition of full length Pin1 (unknown origin) using WFY(pS)PR-pNA as substrate by spectrophotometric analysis.
Series [10] shares this target. Kind of series: Inhibition of Pin1 (unknown origin).
The nature of series [11]: Growth inhibition of human […] cells. The class given is functional.
Series [12] concerns the target T1, Peptidyl-prolyl cis-trans isomerase NIMA-interacting 1. Kind of series: Inhibition of Pin1 (unknown origin) using Suc-Ala-Glu-cis-Pro-Phe-pNA as substrate.
The target is the same in series [13]. Kind of series: Competitive inhibition of Pin1 (unknown origin) by Lineweaver-Burk plot analysis.
Series [14] shares this target. Kind of series: Inhibition of Pin1 in human MCF7 cells assessed as inhibition of etoposide-induced p53 transcription at 10 uM by luciferase reporter gene assay relative to control. Format: cell-based.

Each structure is given as a SMILES string. Where a SMILES comes first, the peptide text is derived from it. Bridges are numbered along the chain shown (N, C = ends).

Chain of Peptidyl-prolyl cis-trans isomerase NIMA-interacting 4 (Q9Y237 whole entry): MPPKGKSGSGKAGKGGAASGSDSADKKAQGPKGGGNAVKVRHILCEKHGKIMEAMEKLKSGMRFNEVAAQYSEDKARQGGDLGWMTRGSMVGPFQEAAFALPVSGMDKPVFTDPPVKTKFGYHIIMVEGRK

Take `CC(=O)N[C@@H](C)C(=O)N[C@@H](C)C(=O)N[C@H](COP(=O)(O)O)C(=O)N1CCC[C@H]1C(=O)N[C@@H](CCCNC(=N)N)C(=O)Nc1ccc([N+](=O)[O-])cc1`: half-maximal inhibition in series [1] (IC50) required 1000 nM.

Consider `COc1ccc(F)cc1C(=O)[C@@]1(C)CCc2ccccc21`, for which, in [2], the inhibition is 25%.

As for `CCCCCc1ccc(CCC(=O)N[C@H](Cc2ccc(O)cc2)C(=O)N[C@@H](Cc2ccc(O)cc2)C(=O)N[C@@H](Cc2ccc3ccccc3c2)C(=O)O)cc1`, the midpoint of inhibition in series [3], the IC50, lay at 600 nM.

In turn, `CC[C@H](C)[C@@H]1NC(=O)[C@H](CCC(=O)O)NC(=O)[C@H](C(C)C)NC(=O)[C@H](CCC(=O)O)NC(=O)[C@@H]2CCCN2C(=O)[C@H](Cc2ccc(O)cc2)NC(=O)[C@H](CCCN=C(N)N)NC(=O)[C@@H](N)CSSC[C@@H](C(=O)O)NC1=O` [CYCLIC CRYPEVEIC] (H-CRYPEVEIC-OH; disulfide 1-9) came in with an IC50 in series [4] of 500 nM. That is a sub-micromolar value.

`O=C(c1cc(-c2c(O)c([N+](=O)[O-])cc(F)c2[N+](=O)[O-])cc([N+](=O)[O-])c1O)C1CCc2ccccc21` (racemic) gave an IC50 in series [1] of 200 nM.

Take `O=C(O)C[C@@H](C/C=C/c1cccc(F)c1)NC(=O)c1ccc2ccccc2c1`: the concentration for half-maximal inhibition (IC50) in series [3] came to 890 nM.

Turning to `CCOC(=O)CN1C(=O)c2ccc3c4c(ccc(c24)C1=O)C(=O)N(CC(=O)OCC)C3=O`, the IC50 in series [5] and in series [6] was 1500 nM each time.

In [7], `O=c1ccsn1-c1ccc(F)c(Cl)c1` gave an IC50 of 6100 nM.

Take `O=C(O[C@@H]1Cc2c(O)cc(O)cc2O[C@@H]1c1cc(O)c(O)c(O)c1)c1cc(O)c(O)c(O)c1` [EPIGALOCATECHIN GALLATE]: the figures for the GI50 (with MEF; in series [8]) were 7000 nM and 14000 nM, respectively. This compound came in with an IC50 in series [9] of 20000 nM.

As to `O=C(N[C@@H](COP(=O)(O)O)CN1CCC[C@H]1C(=O)NCCc1c[nH]c2ccccc12)OCC1c2ccccc2-c2ccccc21`, the IC50 in series [10] stood at 6000 nM.

Consider `CC(=O)N[C@@H](Cc1ccccc1)C(=O)N[C@@H](Cc1ccccc1)C(=O)N[C@H](/C=C1/CCC[C@H]1C(=O)N[C@@H](CCCNC(=N)N)C(N)=O)COP(=O)(O)O`, for which growth in series [11] was halved (GI50) at 8000 nM. Also, inhibition in [12] was half-maximal at 1500 nM (IC50).

`S=C(SC(=S)N1CCCCC1)N1CCCCC1`: in series [10], the IC50 was 4000 nM. Further, the Ki in series [13] was found to be 50 nM.

With `COc1ccc(F)cc1C(=O)[C@]1(C)CCc2ccccc21`, in series [10], the IC50 is 5600 nM. Moreover, the inhibition in series [14] is over 75%.

For `O=C(N[C@H](Cc1cccc(F)c1)c1nn[nH]n1)c1ccc2ccccc2c1`, the IC50 in series [3] came to 4000 nM.

As for `Cc1oc(-c2ccc(CN)cc2)cc1C(=O)N[C@H](Cc1nc2ccccc2[nH]1)C(=O)O`, the IC50 in series [10] amounted to 25 nM.
